Experiments:
Assay in all cases: Weeding effect in post-emergence stage
Assay type in all cases: in vivo
Echinochloa crusgalli = conditions: for Weeding effect in post-emergence stage, Echinochloa crusgalli (level): fresh weight control rate level; for Weeding effect in post-emergence stage, Echinochloa crusgalli: level of fresh weight growth control rate
Method in brief: (§1)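 Pot-grown weeds were sprayed at the 2-3 leaf stage, 2 weeks after sowing, with compound in acetone plus Tween 80 and 1.5 liter/ha methyl oleate emulsifiable concentrate, diluted in water. Doses were 500, 250, 125, 60, 30, 15, 7.5 g/ha. Growth control was scored after 3 weeks in greenhouse; mean of three replicates.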

Abutilon theophrasti = conditions: for Weeding effect in post-emergence stage, Abutilon theophrasti (level): fresh weight control rate level; for Weeding effect in post-emergence stage, Abutilon theophrasti: level of fresh weight growth control rate
Method in brief: as §1

Setaria viridis = conditions: for Weeding effect in post-emergence stage, Setaria viridis (level): fresh weight control rate level; for Weeding effect in post-emergence stage, Setaria viridis: level of fresh weight growth control rate
Method in brief: as §1

Eleusine indica = conditions: for Weeding effect in post-emergence stage, Eleusine indica (level): fresh weight control rate level; for Weeding effect in post-emergence stage, Eleusine indica: level of fresh weight growth control rate
Method in brief: as §1

Digitaria sanguinalis = conditions: for Weeding effect in post-emergence stage, Digitaria sanguinalis (level): fresh weight control rate level; for Weeding effect in post-emergence stage, Digitaria sanguinalis: level of fresh weight growth control rate
Method in brief: as §1

Alopecurus japonicus = conditions: for Weeding effect in post-emergence stage, Alopecurus japonicus (level): fresh weight control rate level; for Weeding effect in post-emergence stage, Alopecurus japonicus: level of fresh weight growth control rate
Method in brief: as §1

COC(=O)C(C)O/N=C/c1cc(-n2c(=O)cc(C(F)(F)F)n(C)c2=S)c(F)cc1C#N (racemic) [Compound 396]
Weeding effect in post-emergence stage, Echinochloa crusgalli (level) (Echinochloa crusgalli; Dose 60 g/ha): 5 (Level 5: growth control rate is above 85%)
Weeding effect in post-emergence stage, Abutilon theophrasti (level) (Abutilon theophrasti; Dose 60 g/ha): 5 (Level 5: growth control rate is above 85%)
Weeding effect in post-emergence stage, Setaria viridis (level) (Setaria viridis; Dose 60 g/ha): 5 (Level 5: growth control rate is above 85%)
Weeding effect in post-emergence stage, Eleusine indica (level) (Eleusine indica; Dose 60 g/ha): 5 (Level 5: growth control rate is above 85%)
Weeding effect in post-emergence stage, Digitaria sanguinalis (level) (Digitaria sanguinalis; Dose 60 g/ha): 5 (Level 5: growth control rate is above 85%)
Weeding effect in post-emergence stage, Alopecurus japonicus (level) (Alopecurus japonicus; Dose 60 g/ha): 5 (Level 5: growth control rate is above 85%)

CCOCCOC(=O)[C@@H](C)O/N=C/c1cc(-n2c(=O)cc(C(F)(F)F)n(C)c2=O)c(F)cc1Cl [231(R)]
Weeding effect in post-emergence stage, Echinochloa crusgalli (Echinochloa crusgalli; Dose 15 g/ha): 5 (Level 5: growth control rate is above 85%)
Weeding effect in post-emergence stage, Abutilon theophrasti (Abutilon theophrasti; Dose 15 g/ha): 5 (Level 5: growth control rate is above 85%)
Weeding effect in post-emergence stage, Setaria viridis (Setaria viridis; Dose 15 g/ha): 5 (Level 5: growth control rate is above 85%)
Weeding effect in post-emergence stage, Eleusine indica (Eleusine indica; Dose 15 g/ha): 5 (Level 5: growth control rate is above 85%)
Weeding effect in post-emergence stage, Digitaria sanguinalis (Digitaria sanguinalis; Dose 15 g/ha): 5 (Level 5: growth control rate is above 85%)
Weeding effect in post-emergence stage, Alopecurus japonicus (Alopecurus japonicus; Dose 15 g/ha): 5 (Level 5: growth control rate is above 85%)

C[C@@H](O/N=C/c1cc(-n2c(=O)cc(C(F)(F)F)n(C)c2=O)c(F)cc1Cl)C(=O)OCC1OCCO1 [266(R)]
Weeding effect in post-emergence stage, Echinochloa crusgalli (Echinochloa crusgalli; Dose 30 g/ha): 5 (Level 5: growth control rate is above 85%)
Weeding effect in post-emergence stage, Abutilon theophrasti (Abutilon theophrasti; Dose 30 g/ha): 5 (Level 5: growth control rate is above 85%)
Weeding effect in post-emergence stage, Setaria viridis (Setaria viridis; Dose 30 g/ha): 5 (Level 5: growth control rate is above 85%)
Weeding effect in post-emergence stage, Eleusine indica (Eleusine indica; Dose 30 g/ha): 5 (Level 5: growth control rate is above 85%)
Weeding effect in post-emergence stage, Digitaria sanguinalis (Digitaria sanguinalis; Dose 30 g/ha): 5 (Level 5: growth control rate is above 85%)
Weeding effect in post-emergence stage, Alopecurus japonicus (Alopecurus japonicus; Dose 30 g/ha): 5 (Level 5: growth control rate is above 85%)

CCC(CC)=NOC(=O)C(C)O/N=C/c1cc(-n2c(=O)cc(C(F)(F)F)n(C)c2=O)c(F)cc1Cl (stereo not drawn) [Compound 251]
Weeding effect in post-emergence stage, Echinochloa crusgalli (Echinochloa crusgalli; Dose 15 g/ha): 5 (Level 5: growth control rate is above 85%)
Weeding effect in post-emergence stage, Abutilon theophrasti (Abutilon theophrasti; Dose 15 g/ha): 5 (Level 5: growth control rate is above 85%)
Weeding effect in post-emergence stage, Setaria viridis (Setaria viridis; Dose 15 g/ha): 5 (Level 5: growth control rate is above 85%)
Weeding effect in post-emergence stage, Eleusine indica (Eleusine indica; Dose 15 g/ha): 5 (Level 5: growth control rate is above 85%)
Weeding effect in post-emergence stage, Digitaria sanguinalis (Digitaria sanguinalis; Dose 15 g/ha): 5 (Level 5: growth control rate is above 85%)
Weeding effect in post-emergence stage, Alopecurus japonicus (Alopecurus japonicus; Dose 15 g/ha): 5 (Level 5: growth control rate is above 85%)

COC(=O)C(CC1CC1)O/N=C/c1cc(-n2c(=O)cc(C(F)(F)F)n(C)c2=O)c(F)cc1Cl (racemic) [Compound 462]
Weeding effect in post-emergence stage, Echinochloa crusgalli (level) (Echinochloa crusgalli; Dose 15 g/ha): 5 (Level 5: growth control rate is above 85%)
Weeding effect in post-emergence stage, Abutilon theophrasti (level) (Abutilon theophrasti; Dose 15 g/ha): 5 (Level 5: growth control rate is above 85%)
Weeding effect in post-emergence stage, Setaria viridis (level) (Setaria viridis; Dose 15 g/ha): 5 (Level 5: growth control rate is above 85%)
Weeding effect in post-emergence stage, Eleusine indica (level) (Eleusine indica; Dose 15 g/ha): 5 (Level 5: growth control rate is above 85%)
Weeding effect in post-emergence stage, Digitaria sanguinalis (level) (Digitaria sanguinalis; Dose 15 g/ha): 5 (Level 5: growth control rate is above 85%)
Weeding effect in post-emergence stage, Alopecurus japonicus (level) (Alopecurus japonicus; Dose 15 g/ha): 5 (Level 5: growth control rate is above 85%)

CCCCCCCOC(=O)C(C)O/N=C/c1cc(-n2c(=O)cc(C(F)(F)F)n(C)c2=O)c(F)cc1Cl (racemic) [Compound 205]
Weeding effect in post-emergence stage, Echinochloa crusgalli (Echinochloa crusgalli; Dose 15 g/ha): 5 (Level 5: growth control rate is above 85%)
Weeding effect in post-emergence stage, Abutilon theophrasti (Abutilon theophrasti; Dose 15 g/ha): 5 (Level 5: growth control rate is above 85%)
Weeding effect in post-emergence stage, Setaria viridis (Setaria viridis; Dose 15 g/ha): 5 (Level 5: growth control rate is above 85%)
Weeding effect in post-emergence stage, Eleusine indica (Eleusine indica; Dose 15 g/ha): 5 (Level 5: growth control rate is above 85%)
Weeding effect in post-emergence stage, Digitaria sanguinalis (Digitaria sanguinalis; Dose 15 g/ha): 5 (Level 5: growth control rate is above 85%)
Weeding effect in post-emergence stage, Alopecurus japonicus (Alopecurus japonicus; Dose 15 g/ha): 5 (Level 5: growth control rate is above 85%)

C[C@@H](O/N=C/c1cc(-n2c(=O)cc(C(F)(F)F)n(C)c2=O)c(F)cc1Cl)C(=O)OCCCC#N [446(R)]
Weeding effect in post-emergence stage, Echinochloa crusgalli (level) (Echinochloa crusgalli; Dose 15 g/ha): 5 (Level 5: growth control rate is above 85%)
Weeding effect in post-emergence stage, Abutilon theophrasti (level) (Abutilon theophrasti; Dose 15 g/ha): 5 (Level 5: growth control rate is above 85%)
Weeding effect in post-emergence stage, Setaria viridis (level) (Setaria viridis; Dose 15 g/ha): 5 (Level 5: growth control rate is above 85%)
Weeding effect in post-emergence stage, Eleusine indica (level) (Eleusine indica; Dose 15 g/ha): 5 (Level 5: growth control rate is above 85%)
Weeding effect in post-emergence stage, Digitaria sanguinalis (level) (Digitaria sanguinalis; Dose 15 g/ha): 5 (Level 5: growth control rate is above 85%)
Weeding effect in post-emergence stage, Alopecurus japonicus (level) (Alopecurus japonicus; Dose 15 g/ha): 5 (Level 5: growth control rate is above 85%)

COC(=O)C(C)OC(=O)[C@@H](C)O/N=C/c1cc(-n2c(=O)cc(C(F)(F)F)n(C)c2=O)c(F)cc1Cl (stereo partly drawn) [241(R)]
Weeding effect in post-emergence stage, Echinochloa crusgalli (Echinochloa crusgalli; Dose 30 g/ha): 5 (Level 5: growth control rate is above 85%)
Weeding effect in post-emergence stage, Abutilon theophrasti (Abutilon theophrasti; Dose 30 g/ha): 5 (Level 5: growth control rate is above 85%)
Weeding effect in post-emergence stage, Setaria viridis (Setaria viridis; Dose 30 g/ha): 5 (Level 5: growth control rate is above 85%)
Weeding effect in post-emergence stage, Eleusine indica (Eleusine indica; Dose 30 g/ha): 5 (Level 5: growth control rate is above 85%)
Weeding effect in post-emergence stage, Digitaria sanguinalis (Digitaria sanguinalis; Dose 30 g/ha): 5 (Level 5: growth control rate is above 85%)
Weeding effect in post-emergence stage, Alopecurus japonicus (Alopecurus japonicus; Dose 30 g/ha): 5 (Level 5: growth control rate is above 85%)

CCSC(=O)C(C)O/N=C/c1cc(-n2c(=O)cc(C(F)(F)F)n(C)c2=O)c(F)cc1Cl (stereo not drawn) [Compound 398]
Weeding effect in post-emergence stage, Echinochloa crusgalli (level) (Echinochloa crusgalli; Dose 15 g/ha): 5 (Level 5: growth control rate is above 85%)
Weeding effect in post-emergence stage, Abutilon theophrasti (level) (Abutilon theophrasti; Dose 15 g/ha): 5 (Level 5: growth control rate is above 85%)
Weeding effect in post-emergence stage, Setaria viridis (level) (Setaria viridis; Dose 15 g/ha): 5 (Level 5: growth control rate is above 85%)
Weeding effect in post-emergence stage, Eleusine indica (level) (Eleusine indica; Dose 15 g/ha): 5 (Level 5: growth control rate is above 85%)
Weeding effect in post-emergence stage, Digitaria sanguinalis (level) (Digitaria sanguinalis; Dose 15 g/ha): 5 (Level 5: growth control rate is above 85%)
Weeding effect in post-emergence stage, Alopecurus japonicus (level) (Alopecurus japonicus; Dose 15 g/ha): 5 (Level 5: growth control rate is above 85%)

CCC(CC)=NOC(=O)[C@@H](C)O/N=C/c1cc(-n2c(=O)cc(C(F)(F)F)n(C)c2=O)c(F)cc1Cl [251(R)]
Weeding effect in post-emergence stage, Echinochloa crusgalli (Echinochloa crusgalli; Dose 15 g/ha): 5 (Level 5: growth control rate is above 85%)
Weeding effect in post-emergence stage, Abutilon theophrasti (Abutilon theophrasti; Dose 15 g/ha): 5 (Level 5: growth control rate is above 85%)
Weeding effect in post-emergence stage, Setaria viridis (Setaria viridis; Dose 15 g/ha): 5 (Level 5: growth control rate is above 85%)
Weeding effect in post-emergence stage, Eleusine indica (Eleusine indica; Dose 15 g/ha): 5 (Level 5: growth control rate is above 85%)
Weeding effect in post-emergence stage, Digitaria sanguinalis (Digitaria sanguinalis; Dose 15 g/ha): 5 (Level 5: growth control rate is above 85%)
Weeding effect in post-emergence stage, Alopecurus japonicus (Alopecurus japonicus; Dose 15 g/ha): 5 (Level 5: growth control rate is above 85%)

COC(=O)[C@@H](C)O/N=C/c1cc(-n2c(=S)cc(C(F)(F)F)n(C)c2=S)c(F)cc1Br [391(R)]
Weeding effect in post-emergence stage, Echinochloa crusgalli (level) (Echinochloa crusgalli; Dose 60 g/ha): 5 (Level 5: growth control rate is above 85%)
Weeding effect in post-emergence stage, Abutilon theophrasti (level) (Abutilon theophrasti; Dose 60 g/ha): 5 (Level 5: growth control rate is above 85%)
Weeding effect in post-emergence stage, Setaria viridis (level) (Setaria viridis; Dose 60 g/ha): 5 (Level 5: growth control rate is above 85%)
Weeding effect in post-emergence stage, Eleusine indica (level) (Eleusine indica; Dose 60 g/ha): 5 (Level 5: growth control rate is above 85%)
Weeding effect in post-emergence stage, Digitaria sanguinalis (level) (Digitaria sanguinalis; Dose 60 g/ha): 5 (Level 5: growth control rate is above 85%)
Weeding effect in post-emergence stage, Alopecurus japonicus (level) (Alopecurus japonicus; Dose 60 g/ha): 5 (Level 5: growth control rate is above 85%)
